Results from patent publication US6362369B1, “Phthalic acid diamide derivatives fluorine-containing aniline compounds as starting material, agricultural and horticultural insecticides, and a method for application of the insecticides” (Nihon Nohyaku Co., Ltd., priority 1997, dated 2002).

Experiments:
[1] = test system: rice leafroller (Cnaphalocrocis medinalis); experiment: Insecticidal effect on rice leafroller (Test Example 3); type: in vivo; conditions: 500 ppm, 25° C., humidity 70%; for Insecticidal effect (Test Example 3), judged from mortality / Insecticidal effect on rice leafroller (Test Example 3), judged grade: rice lamina dip; for Insecticidal effect (Test Example 3), judged from mortality: 4 days after inoculation; for Insecticidal effect, Test Example 3: rice lamina immersed; for Insecticidal effect, Test Example 3 / Insecticidal effect on rice leafroller (Test Example 3), judged grade: four days after inoculation; for Insecticidal effect on rice leafroller (Test Example 3), judged grade: third-instar larvae
Description: Insecticidal effect on rice leafroller (Cnaphalocrocis medinalis)
After air-drying, the lamina was placed in a plastic Petri dish with a diameter of 9 cm whose bottom had been covered with a wetted filter paper. The lamina was inoculated with third-instar larvae of rice leafroller, after which the dish was allowed to stand in a room thermostated at 25° C. and having a humidity of 70%. Four days after the inoculation, the dead and alive were counted and the insecticidal effect was judged according to the criterion shown in Test Example 1. The test was carried out with triplicate groups of 10 insects.

[2] = test system: diamondback moth (Plutella xylostella); experiment: Insecticidal effect on diamondback moth (Test Example 1); type: in vivo; conditions: for Insecticidal effect (Test Example 1), judged from mortality / Insecticidal effect, Test Example 1: diamondback moth; for Insecticidal effect (Test Example 1), judged from mortality: judged by the criterion of Test Example 1; for Insecticidal effect on diamondback moth (Test Example 1), judged grade: mortality judged according to the criterion shown in Test Example 1
Outline: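 Triplicate groups of 10 insects were scored: six days after immersion of oviposited Chinese cabbage seedlings and holding at 25 °C post air-drying, hatched larvae were counted. Mortality derived from these counts and insecticidal effect judged by a set criterion.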

[3] = third-instar larvae of rice leafroller
[4] = judged by the mortality criterion of Test Example 1
[5] = rice leafroller third-instar larvae
[6] = mortality judged by criterion of Test Example 1

SMILES: Cc1cc(C(F)(F)C(F)(F)F)ccc1N(C)C(=O)c1cccc(Cl)c1C(=O)N(C)Cc1ccccc1 [compound 1553]
- Insecticidal effect (Test Example 3), judged from mortality [1, 3]: A (100)
- Insecticidal effect (Test Example 1), judged from mortality [2]: A (100)

SMILES: CCNC(=O)c1cccc(Cl)c1C(=O)Nc1ccc(OC(F)F)cc1C [compound 9]
- Insecticidal effect, Test Example 3 [1, 3]: A (100)
- Insecticidal effect, Test Example 1 [2, 4]: A (100)

SMILES: CC(C)NC(=O)c1cccc(I)c1C(=O)Nc1ccc(Cl)cc1 [compound 411]
- Insecticidal effect, Test Example 3 [1, 3]: A (100)
- Insecticidal effect, Test Example 1 [2, 4]: A (100)

SMILES: Cc1cc(Cl)ccc1NC(=O)c1cccc(C(=O)NC(C)C)c1C(=O)NC(C)C [compound 803]
- Insecticidal effect on rice leafroller (Test Example 3), judged grade [1]: A (100)
- Insecticidal effect on diamondback moth (Test Example 1), judged grade [2]: A (100)

SMILES: C#CCNC(=O)c1ccccc1C(=O)Nc1ccc(C(F)(F)C(F)(F)F)cc1C [compound 1411]
- Insecticidal effect, Test Example 3 [1, 5]: A (100)
- Insecticidal effect, Test Example 1 [2, 6]: A (100)

SMILES: CC(C)NC(=O)c1cccc(I)c1C(=O)Nc1ccc(OC(F)F)c(F)c1 [compound 448]
- Insecticidal effect on rice leafroller (Test Example 3), judged grade [1]: A (100)
- Insecticidal effect on diamondback moth (Test Example 1), judged grade [2]: A (100)

SMILES: Cc1cc(C(F)(F)C(F)(F)F)ccc1NC(=O)c1cccc(Cl)c1C(=O)NCc1ccccc1C(F)(F)F [compound 1523]
- Insecticidal effect (Test Example 3), judged from mortality [1, 3]: A (100)
- Insecticidal effect (Test Example 1), judged from mortality [2]: A (100)

SMILES: CCN(CC)C(=O)c1c(C(=O)Nc2ccc(C(F)(F)C(F)(F)F)cc2Cl)cccc1[N+](=O)[O-] [compound 1133]
- Insecticidal effect, Test Example 3 [1, 5]: A (100)
- Insecticidal effect, Test Example 1 [2, 6]: A (100)

SMILES: Cc1cc(Oc2cccc(C(F)(F)F)c2)ccc1NC(=O)c1cccc([N+](=O)[O-])c1C(=O)NC(C)C [compound 724]
- Insecticidal effect on rice leafroller (Test Example 3), judged grade [1]: B (99-90)
- Insecticidal effect on diamondback moth (Test Example 1), judged grade [2]: A (100)

SMILES: CC(C)NC(=O)c1ccccc1C(=O)Nc1ccc(C(F)(C(F)(F)F)C(F)(F)F)cc1Cl [compound 46]
- Insecticidal effect, Test Example 3 [1, 3]: B (99-90)
- Insecticidal effect, Test Example 1 [2, 4]: A (100)

SMILES: Cc1cc(OCC(F)(F)F)ccc1NC(=O)c1c(I)cccc1C(=O)NC(C)C [compound 443]
- Insecticidal effect, Test Example 3 [1, 3]: D (79-50)
- Insecticidal effect, Test Example 1 [2, 4]: A (100)

SMILES: Cc1cc(Cl)ccc1NC(=O)c1c(F)cccc1C(=O)NC(C)C [compound 545]
- Insecticidal effect on rice leafroller (Test Example 3), judged grade [1]: A (100)
- Insecticidal effect on diamondback moth (Test Example 1), judged grade [2]: A (100)

SMILES: Cc1cc(C(F)(F)C(F)(F)F)ccc1NC(=O)c1cccc(Cl)c1C(=O)NCc1cccnc1 [compound 1419]
- Insecticidal effect, Test Example 3 [1, 5]: A (100)
- Insecticidal effect, Test Example 1 [2, 6]: A (100)

SMILES: Cc1cc(OC(F)(F)F)ccc1NC(=O)c1c(F)cccc1C(=O)NC(C)C [compound 564]
- Insecticidal effect on rice leafroller (Test Example 3), judged grade [1]: B (99-90)
- Insecticidal effect on diamondback moth (Test Example 1), judged grade [2]: A (100)

SMILES: Cc1cc(OC(F)(F)C(F)F)ccc1NC(=O)c1c(Br)cccc1C(=O)NC(C)C [compound 330]
- Insecticidal effect, Test Example 3 [1, 3]: A (100)
- Insecticidal effect, Test Example 1 [2, 4]: A (100)

SMILES: Cc1cc(OC(F)(F)Br)ccc1NC(=O)c1c(Cl)cccc1C(=O)NC(C)C [compound 238]
- Insecticidal effect, Test Example 3 [1, 3]: A (100)
- Insecticidal effect, Test Example 1 [2, 4]: A (100)

SMILES: CC(C)NC(=O)c1cccc(Br)c1C(=O)Nc1ccc(OC(F)(F)F)cc1Br [compound 324]
- Insecticidal effect, Test Example 3 [1, 3]: A (100)
- Insecticidal effect, Test Example 1 [2, 4]: A (100)

SMILES: CC(C)NC(=O)c1c(F)cccc1C(=O)Nc1ccc(SC(F)(F)C(F)F)cc1 [compound 479]
- Insecticidal effect on rice leafroller (Test Example 3), judged grade [1]: A (100)
- Insecticidal effect on diamondback moth (Test Example 1), judged grade [2]: A (100)

SMILES: CCC(COC)NC(=O)c1cccc(I)c1C(=O)Nc1ccc(C(F)(F)C(F)(F)F)cc1C (stereo not shown) [compound 1014]
- Insecticidal effect, Test Example 3 [1, 5]: A (100)
- Insecticidal effect, Test Example 1 [2, 6]: A (100)

SMILES: CCN(CC)C(=O)c1c(F)cccc1C(=O)Nc1ccc(C(F)(F)F)cc1 [compound 1547]
- Insecticidal effect (Test Example 3), judged from mortality [1, 3]: A (100)
- Insecticidal effect (Test Example 1), judged from mortality [2]: A (100)

SMILES: CC(C)NC(=O)c1ccccc1C(=O)Nc1ccc(Cl)cc1F [compound 1632]
- Insecticidal effect (Test Example 3), judged from mortality [1, 3]: A (100)
- Insecticidal effect (Test Example 1), judged from mortality [2]: A (100)

SMILES: Cc1cccc(NC(=O)c2c(Br)cccc2C(=O)NC(C)C)c1C [compound 303]
- Insecticidal effect, Test Example 3 [1, 3]: D (79-50)
- Insecticidal effect, Test Example 1 [2, 4]: A (100)

SMILES: Cc1cc(OC(F)F)ccc1NC(=O)c1cccc([N+](=O)[O-])c1C(=O)NCCF [compound 863]
- Insecticidal effect on rice leafroller (Test Example 3), judged grade [1]: B (99-90)
- Insecticidal effect on diamondback moth (Test Example 1), judged grade [2]: A (100)

SMILES: CC(C)NC(=O)c1ccccc1C(=O)Nc1ccc([S+]([O-])C(F)(F)Br)cc1 (stereo not shown) [compound 1107]
- Insecticidal effect, Test Example 3 [1, 5]: A (100)
- Insecticidal effect, Test Example 1 [2, 6]: A (100)

SMILES: Cc1cc(CCC(C)(C)C)ccc1NC(=O)c1cccc(Cl)c1C(=O)NC(C)C [compound 1323]
- Insecticidal effect, Test Example 3 [1, 5]: A (100)
- Insecticidal effect, Test Example 1 [2, 6]: A (100)

SMILES: CC(C)NC(=O)c1c(Cl)cccc1C(=O)Nc1cccc(SC(F)(F)F)c1 [compound 99]
- Insecticidal effect, Test Example 3 [1, 3]: A (100)
- Insecticidal effect, Test Example 1 [2, 4]: A (100)

SMILES: Cc1c(Cl)cccc1NC(=O)c1c(I)cccc1C(=O)NC(C)C [compound 427]
- Insecticidal effect, Test Example 3 [1, 3]: D (79-50)
- Insecticidal effect, Test Example 1 [2, 4]: A (100)

SMILES: Cc1cc(C(F)(F)C(F)(F)F)ccc1NC(=O)c1c(C)cccc1C(=O)NC(C)(C)C [compound 956]
- Insecticidal effect, Test Example 3 [1, 5]: A (100)
- Insecticidal effect, Test Example 1 [2, 6]: A (100)

SMILES: CC(C)NC(=O)c1cccc(F)c1C(=O)Nc1ccc(OC(F)(F)F)cc1Br [compound 563]
- Insecticidal effect on rice leafroller (Test Example 3), judged grade [1]: A (100)
- Insecticidal effect on diamondback moth (Test Example 1), judged grade [2]: A (100)

SMILES: COCCCNC(=O)c1cccc(I)c1C(=O)Nc1ccc(C(F)(F)C(F)(F)F)cc1C [compound 986]
- Insecticidal effect, Test Example 3 [1, 5]: A (100)
- Insecticidal effect, Test Example 1 [2, 6]: A (100)

SMILES: C#CC(C)(C)NC(=O)c1c(Cl)cccc1C(=O)Nc1ccc(OC(F)F)cc1C [compound 1588]
- Insecticidal effect (Test Example 3), judged from mortality [1, 3]: A (100)
- Insecticidal effect (Test Example 1), judged from mortality [2]: A (100)

SMILES: CCCNC(=O)c1c(C(=O)Nc2ccc(OC(F)F)cc2C)cccc1[N+](=O)[O-] [compound 17]
- Insecticidal effect, Test Example 3 [1, 3]: D (79-50)
- Insecticidal effect, Test Example 1 [2, 4]: A (100)

SMILES: CCCN(CC)C(=O)c1c(F)cccc1C(=O)Nc1ccc(OC(F)(F)F)cc1 [compound 1582]
- Insecticidal effect (Test Example 3), judged from mortality [1, 3]: A (100)
- Insecticidal effect (Test Example 1), judged from mortality [2]: A (100)

SMILES: CC(C)NC(=O)c1cccc(I)c1C(=O)Nc1ccc(Br)cc1 [compound 412]
- Insecticidal effect, Test Example 3 [1, 3]: C (89-80)
- Insecticidal effect, Test Example 1 [2, 4]: A (100)

SMILES: CC(C)NC(=O)c1c(Cl)cccc1C(=O)Nc1ccc(C=C(Cl)C(F)(F)F)cc1 [compound 911]
- Insecticidal effect on rice leafroller (Test Example 3), judged grade [1]: D (79-50)
- Insecticidal effect on diamondback moth (Test Example 1), judged grade [2]: A (100)

SMILES: CC(C)NC(=O)c1c(I)cccc1C(=O)Nc1ccc(C(F)(F)C(F)(F)F)cc1C(F)(F)C(F)(F)F [compound 1410]
- Insecticidal effect, Test Example 3 [1, 5]: A (100)
- Insecticidal effect, Test Example 1 [2, 6]: A (100)

SMILES: CCc1cc(OC(F)(F)F)ccc1NC(=O)c1ccccc1C(=O)NC(C)C [compound 1208]
- Insecticidal effect, Test Example 3 [1, 5]: A (100)
- Insecticidal effect, Test Example 1 [2, 6]: A (100)

SMILES: Cc1cc(Oc2ncc(C(F)(F)F)cc2Cl)ccc1NC(=O)c1c(F)cccc1C(=O)NC(C)C [compound 577]
- Insecticidal effect on rice leafroller (Test Example 3), judged grade [1]: A (100)
- Insecticidal effect on diamondback moth (Test Example 1), judged grade [2]: A (100)

SMILES: Cc1c(NC(=O)c2c(Br)cccc2C(=O)NC(C)C)ccc(OC(F)F)c1Cl [compound 332]
- Insecticidal effect, Test Example 3 [1, 3]: A (100)
- Insecticidal effect, Test Example 1 [2, 4]: A (100)

SMILES: CCN(CC)C(=O)c1c(F)cccc1C(=O)Nc1ccc(C(F)(F)C(F)(F)F)cc1F [compound 1530]
- Insecticidal effect (Test Example 3), judged from mortality [1, 3]: A (100)
- Insecticidal effect (Test Example 1), judged from mortality [2]: A (100)

SMILES: Cc1cc(Oc2ncc(C(F)(F)F)cc2Cl)ccc1NC(=O)c1c(Cl)cccc1C(=O)NC(C)C [compound 250]
- Insecticidal effect, Test Example 3 [1, 3]: D (79-50)
- Insecticidal effect, Test Example 1 [2, 4]: A (100)

SMILES: CC(C)NC(=O)c1c(I)cccc1C(=O)Nc1ccc2c(c1)OC(F)(F)C2(F)F [compound 1620]
- Insecticidal effect (Test Example 3), judged from mortality [1, 3]: A (100)
- Insecticidal effect (Test Example 1), judged from mortality [2]: A (100)

SMILES: Cc1cc(OC(F)(F)F)ccc1NC(=O)c1c(Cl)cccc1C(=O)NC(C)C [compound 237]
- Insecticidal effect, Test Example 3 [1, 3]: A (100)
- Insecticidal effect, Test Example 1 [2, 4]: A (100)

SMILES: Cc1cc(C(F)(F)C(F)(F)F)ccc1NC(=O)c1cccc(I)c1C(=O)NC1CCCCC1 [compound 993]
- Insecticidal effect, Test Example 3 [1, 5]: A (100)
- Insecticidal effect, Test Example 1 [2, 6]: A (100)

SMILES: Cc1cc(C(F)(F)C(F)(F)F)ccc1NC(=O)c1c(Cl)cccc1C(=O)NC1CCCO1 (stereo not shown) [compound 1393]
- Insecticidal effect, Test Example 3 [1, 5]: A (100)
- Insecticidal effect, Test Example 1 [2, 6]: A (100)

SMILES: CC(C)NC(=O)c1ccccc1C(=O)Nc1ccc(C(F)(F)C(F)(F)F)cc1 [compound 889]
- Insecticidal effect on rice leafroller (Test Example 3), judged grade [1]: A (100)
- Insecticidal effect on diamondback moth (Test Example 1), judged grade [2]: A (100)

SMILES: CC(C)NC(=O)c1c(Cl)cccc1C(=O)Nc1ccc(-c2ccccc2)cc1 [compound 110]
- Insecticidal effect, Test Example 3 [1, 3]: A (100)
- Insecticidal effect, Test Example 1 [2, 4]: A (100)
